Counter-ions that a name gives are not always drawn.
How the values were obtained:
[1] = biological target: T1, human serotonin transporter (hSERT) (Homo sapiens, UniProt P31645); test: Inhibition of 3H-serotonin uptake in HEK-293 cells expressing hSERT; assay type: cell-based; details: HEK-293 cells with hSERT; 3H-5HT 50 nM; 5 min incubation at 25° C.; read-out: SRI IC50
T1 construct: expressed in transfected cells; host or cells: HEK-293
Experimental: (§1) The compounds were tested for biological activity by their ability to inhibit the uptake of serotonin and/or noradrenaline by human serotonin and/or noradrenaline transporters as follows.
(§2) (i) Cell Culture • Human embryonic kidney cells (HEK-293) stably transfected with either the human serotonin transporter (hSERT), noradrenaline transporter (hNET) or dopamine transporter (hDAT) were cultured under standard cell culture techniques (cells were grown at 37° C. and 5% CO2in either Dulbecco's Modified Eagle's Medium (DMEM) culture media supplemented with 10% dialysed foetal calf serum (FCS), 2 mM L-glutamine and 250 μg/ml geneticin (hSERT and hNET cells) or DMEM-culture media supplemented with 5% FCS, 5% new-born calf serum, 2 mM L-glutamine and […] (hDAT cells)). Prior to assay, cells were harvested by dissociation using cell dissociation solution (Sigma) and centrifugation, and resuspended in standard assay buffer (see below) at a viable cell density of 750,000 cells/ml.
(§3) (i) Determination of Inhibitor Potency • All test compounds were dissolved in 100% DMSO at 4 mM and diluted down in 1% DMSO in water to give appropriate test concentrations. Assays were carried out in 96-well filter bottom plates. Cells expressing the appropriate human transporter protein (75,000 cells/assay well) were pre-incubated at 25° C. in standard assay buffer containing either test compound, a standard inhibitor (positive control) or compound vehicle (DMSO in water; final DMSO concentration was 0.1% in each assay well) for 5 minutes. Reactions were started by addition of either ^3H-serotonin, ^3H-noradrenaline or ^3H-dopamine substrates. All reactions were carried out at 25° C. in a shaking incubator. Incubation times were 5 minutes for the hSERT and hDAT assays and 15 minutes for the hNET assay. Reactions were terminated by addition of ice-cold wash buffer (see below), followed by filtration of the assay mixture using a vacuum manifold and rapid washing with icecold wash buffer. The quantity of ^3H-substrate incorporated into the cells was then quantified: Filtered/washed assay plates were dried at 45° C. for 1 hour, scintillation fluid added, and radioactivity measured by scintillation counting. Potency of test compounds was quantified as IC50 values (concentration of test compound required to inhibit the specific uptake of radiolabelled substrate into the cells by 50% relative to maximum (compound vehicle only) and minimum (complete inhibition by standard inhibitor) responses).
(§4) (iii) Standard Assay Buffer Composition: • Tris(hydroxymethyl)amino methane hydrochloride (26 mM) • NaCl (124 mM) • KCl (4.5 mM) • KH2PO4 (1.2 mM) • MgCl2.6H2O (1.3 mM) • Ascorbic acid (1.136 mM) • Glucose (5.55 mM) • pH 7.40 • CaCl2 (2.8 mM) • Pargyline (100 μM) • Note: The pH of the buffer was adjusted to 7.40 with 1 M NaOH before addition of CaCl2 and pargyline. • Wash Buffer Composition: • Tris(hydroxymethyl)methylamine (26 mM) • NaCl (124 mM) • KCl (4.5 mM) • KH2PO4 (1.2 mM) • MgCl2.6H2O (1.3 mM) • Ascorbic acid (1.136 mM) • pH 7.40 at 4° C. with 6M HCl
(§5) (iv) Summary of Assay Parameters

[2] = biological target: T2, human noradrenaline transporter (hNET) (Homo sapiens, UniProt P23975); test: Inhibition of 3H-noradrenaline uptake in HEK-293 cells expressing hNET; assay type: cell-based; details: HEK-293 cells with hNET; 3H-noradrenaline 200 nM; 15 min incubation at 25° C.; read-out: NRI IC50
T2 construct: expressed in transfected cells; host or cells: HEK-293
Experimental: as §1, §2, §3, §4, §5

T1 sequence (P31645 whole entry): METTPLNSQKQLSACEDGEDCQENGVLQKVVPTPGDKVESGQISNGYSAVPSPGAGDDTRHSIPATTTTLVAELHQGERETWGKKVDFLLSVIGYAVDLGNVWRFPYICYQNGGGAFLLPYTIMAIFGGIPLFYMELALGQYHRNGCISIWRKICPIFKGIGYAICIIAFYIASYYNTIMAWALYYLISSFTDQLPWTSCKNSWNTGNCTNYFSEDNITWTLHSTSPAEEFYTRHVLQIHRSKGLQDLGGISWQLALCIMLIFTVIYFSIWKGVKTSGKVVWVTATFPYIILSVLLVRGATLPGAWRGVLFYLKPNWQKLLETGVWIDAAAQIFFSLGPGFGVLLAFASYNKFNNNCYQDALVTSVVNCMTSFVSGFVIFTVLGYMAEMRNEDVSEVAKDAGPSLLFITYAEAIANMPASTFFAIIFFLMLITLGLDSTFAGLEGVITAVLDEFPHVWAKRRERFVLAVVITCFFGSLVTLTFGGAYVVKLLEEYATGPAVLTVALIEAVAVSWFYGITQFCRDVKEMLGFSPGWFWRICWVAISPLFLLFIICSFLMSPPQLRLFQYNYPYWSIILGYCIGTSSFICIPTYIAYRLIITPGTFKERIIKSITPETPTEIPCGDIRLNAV
T2 sequence (P23975 whole entry): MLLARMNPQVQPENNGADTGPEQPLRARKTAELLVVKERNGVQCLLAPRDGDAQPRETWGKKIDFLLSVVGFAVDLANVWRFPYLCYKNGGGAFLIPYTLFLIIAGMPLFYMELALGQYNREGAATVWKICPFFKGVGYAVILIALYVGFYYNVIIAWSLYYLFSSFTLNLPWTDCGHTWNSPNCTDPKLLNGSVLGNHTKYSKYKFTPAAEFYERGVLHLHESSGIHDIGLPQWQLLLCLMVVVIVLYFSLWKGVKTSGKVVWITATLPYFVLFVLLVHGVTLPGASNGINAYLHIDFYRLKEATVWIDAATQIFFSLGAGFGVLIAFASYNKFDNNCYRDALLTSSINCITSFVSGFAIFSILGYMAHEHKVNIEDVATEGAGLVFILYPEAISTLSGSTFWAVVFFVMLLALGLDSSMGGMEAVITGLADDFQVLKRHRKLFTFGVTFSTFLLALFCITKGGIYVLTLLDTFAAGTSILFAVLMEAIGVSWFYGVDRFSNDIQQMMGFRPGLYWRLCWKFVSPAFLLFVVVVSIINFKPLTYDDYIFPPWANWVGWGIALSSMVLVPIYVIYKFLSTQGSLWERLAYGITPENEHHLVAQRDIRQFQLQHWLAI

IC50 [1] [nM] | IC50 [2] [nM] | Structure (SMILES)
13.9 | 14.1 | CC(C)CN(C(=O)c1cccc(Cl)c1Cl)[C@H]1CCNC1 [Example 1, 2,3-Dichloro-N-isobutyl-N-[(3S)-pyrrolidin-3-yl]benzamide citrate]
9.7 | 28.5 | CC(C)CN(C(=O)c1ccc(Cl)cc1Cl)[C@H]1CCNC1 [Example 2, 2,4-Dichloro-N-isobutyl-N-[(3S)-pyrrolidin-3-yl]benzamide hydrochloride]
22.3 | 21.2 | Cc1cccc(C(=O)N(CC(C)C)[C@H]2CCNC2)c1Cl [Example 3, 2-Chloro-3-methyl-N-isobutyl-N-[(3S)-pyrrolidin-3-yl]benzamide]
18.8 | 45.9 | Cc1c(F)cccc1C(=O)N(CC(C)C)[C@H]1CCNC1 [Example 4, 3-Fluoro-2-methyl-N-isobutyl-N-[(3S)-pyrrolidin-3-yl]benzamide]
10.9 | 32.9 | COc1cccc(C(=O)N(CC(C)C)[C@H]2CCNC2)c1C [Example 5, 3-Methoxy-2-methyl-N-isobutyl-N-[(3S)-pyrrolidin-3-yl]benzamide]
45.2 | 56.9 | CC(C)CN(C(=O)c1cccc(Cl)c1)[C@H]1CCNC1 [Example 6, 3-Chloro-N-isobutyl-N-[(3S)-pyrrolidin-3-yl]benzamide]
5.7 | 55.4 | CC(C)CN(C(=O)c1ccc(Cl)cc1)[C@H]1CCNC1 [Example 7, 4-Chloro-N-isobutyl-N-[(3S)-pyrrolidin-3-yl]benzamide]
7.5 | 16.7 | CC(C)CN(C(=O)c1ccc(Cl)c(Cl)c1)[C@H]1CCNC1 [Example 8, 3,4-Dichloro-N-isobutyl-N-[(3S)-pyrrolidin-3-yl]benzamide]
5.7 | 14 | O=C(c1ccccc1)N(Cc1ccc2ccccc2c1)[C@H]1CCNC1 [Example 9, N-(2-Naphthylmethyl)-N-[(3S)-pyrrolidin-3-yl]benzamide hydrochloride]
7.6 | 7.7 | O=C(c1ccccc1)N(Cc1ccc2ccccc2c1)[C@@H]1CCNC1 [Example 10, N-(2-Naphthylmethyl)-N-[(3R)-pyrrolidin-3-yl]benzamide hydrochloride]
3.2 | 17 | CC(C)CN(C(=O)c1ccc2ccccc2c1)[C@H]1CCNC1 [Example 11, N-Isobutyl-N-[(3S)-pyrrolidin-3-yl]-2-naphthamide hydrochloride]
21.5 | 26.3 | CCCCN(C(=O)c1cccc2ccccc12)[C@H]1CCNC1 [Example 12, N-Butyl-N-[(3S)-pyrrolidin-3-yl]-1-naphthamide hydrochloride]
8.8 | 3.1 | O=C(c1ccc(Cl)cc1)N(Cc1ccc(Cl)c(Cl)c1)[C@@H]1CCNC1 [Example 13, 4-Chloro-N-(3,4-dichlorobenzyl)-N-[(3R)-pyrrolidin-3-yl]benzamide hydrochloride]
43 | 57.1 | O=C(c1ccc(Cl)cc1)N(Cc1cccc(Cl)c1Cl)[C@@H]1CCNC1 [Example 14, 4-Chloro-N-(2,3-dichlorobenzyl)-N-[(3R)-pyrrolidin-3-yl]benzamide hydrochloride]
17.5 | 71.6 | CC(C)CN(C(=O)c1cc(F)c(Cl)cc1Cl)[C@H]1CCNC1 [Example 15, 2,4-Dichloro-5-fluoro-N-isobutyl-N-[(3S)-pyrrolidin-3-yl]benzamide hydrochloride]
